Source: paper PMC5378956, “Inhibition of delta-secretase improves cognitive functions in mouse models of Alzheimer's disease” (Nature Communications, 2017)

Legend:
[1] = tested on: δ-secretase-mediated truncation of tau
Method: A half medium was changed to fresh Neurobasal/B27 every 4 days. The neurons were maintained for 13 days in vitro (DIV). Compounds were pre-incubated with primary culture neurons for 30 min. […] The neuronal lysates were prepared for δ-secretase assay.

[2] = tested on: 5XFAD mice
Method: Only 2-month-old male mice were used in the present study. Sample size was determined by Power and Precision (Biostat). The animals were randomly allocated to experimental groups. Investigators were blinded to the group allocation during the animal experiments. […] The protocol was reviewed and approved by the Emory Institutional Animal Care and Use Committee. Rabbit anti-tau N368 (1:1,000), and anti-APP585N (1:500) antibody, which specifically recognize the δ-secretase-derived tau and APP fragments respectively, were described previously. […] TUNEL in situ cell death detection kit was from Roche (Indianapolis, IN). […] All chemicals not included above were purchased from Sigma-Aldrich (St. Louis, MO). Recombinant δ-secretase was obtained from Sino Biological (Beijing, China), recombinant cathepsin-S was obtained from Athens Research and Technology (Athens, GA), recombinant caspase-3 and caspase-8 were obtained from Millipore (Billerica, MA).
The mice were trained in a round, water-filled tub (52′ diameter) in an environment rich with extra maze cues. An invisible escape platform was located in a fixed spatial location 1 cm below the water surface independent of a subject's start position on a particular trial. In this manner, subjects needed to utilize extra maze cues to determine the platform's location. At the beginning of each trial, the mouse was placed in the water maze with their paws touching the wall from 1 of 4 different starting positions (N, S, E, W). […] On reaching the invisible escape platform, subjects were left on it for an additional 5 s to allow for survey of the spatial cues in the environment to guide future navigation to the platform. After each trial, subjects were dried and kept in a dry plastic holding cage filled with paper towels to allow the subjects to dry off. The temperature of the water was monitored every hour so that mice were tested in water that was between 22 and 25 °C. Following the 5 days of task acquisition, a probe trial was presented during which the platform was removed. The percentage of time that was spent in the quadrant, which previously contained the escape platform during task acquisition, was measured over 60 s. All trials were analysed for latency, swim path length and swim speed by means of MazeScan (Clever Sys, Inc.).
After rinsed in distilled water, the sections were transferred to blocking solution (1% sodium hydroxide and 0.9% hydrogen peroxide) for 20 min. […] The sections were washed with 50% ethanol and placed in distilled water. Then the sections were covered with glass cover using mounting solution.
To detect the Aβ deposition in 5XFAD mice, the mice brains were homogenized in 8 × mass of 5 M guanidine HCl/50 mM Tris–HCl (pH 8.0), and incubated at room temperature for 3 h. Then the samples were diluted with cold reaction buffer (phosphate buffered saline with 5% BSA and 0.03% Tween 20, supplemented with protease inhibitor cocktail) and centrifuged at 16,000g for 20 min at 4 °C. The supernatant were analysed by human Aβ42 and Aβ40 ELISA kit according to the manufacturer's instructions (KHB3441 and KHB3481, Invitrogen). The Aβ42 and Aβ40 concentrations were determined by comparison with the standard curve. The concentrations of IL-1β and TNFα in the mice brain were detected using mouse IL-1β and TNFα ELISA kit from eBioscience according to the manufacture's instructions.

[3] = biological target: T1, GAPDH (Mus musculus, UniProt P16858); assay: GAPDH activity assay in primary neurons; type: cell-based
T1 construct: GAPDH activity in primary neurons; endogenous in cells; host or cells: primary neurons (mouse cortical)
T1 sequence (P16858 whole entry): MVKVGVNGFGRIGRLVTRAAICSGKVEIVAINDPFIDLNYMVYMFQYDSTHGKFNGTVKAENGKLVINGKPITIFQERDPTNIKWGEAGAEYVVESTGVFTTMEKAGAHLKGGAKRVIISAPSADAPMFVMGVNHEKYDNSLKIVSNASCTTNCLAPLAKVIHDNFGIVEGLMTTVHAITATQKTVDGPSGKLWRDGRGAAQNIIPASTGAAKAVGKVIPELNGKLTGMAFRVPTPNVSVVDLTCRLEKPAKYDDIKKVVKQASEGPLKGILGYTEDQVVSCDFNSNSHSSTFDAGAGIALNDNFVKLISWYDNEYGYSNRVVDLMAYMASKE
Method: GAPDH activity was assessed using the GAPDH Activity Assay Kit (Biovision) according to the manufacture's instructions.

[4] = tested on: primary neurons; assay: LDH release of primary neurons after OGD; type: cell-based, mouse

In the case of `Nc1ccc(N2CCOCC2)c2nonc12` [compound 11, 7-(morpholin-4-yl)-2,1,3-benzoxadiazol-4-amine], the “OGD-induced cleavage of human tau (tau N368)” value [1] is reported as “inhibited by compound 11 in a dose-dependent manner”, the “Aβ deposition, time and dose dependence” value ([2]; 2, 5 or 10 mg kg−1 d−1 for 1.5 and 3 months) is reported as “attenuated Aβ deposition in a time- and dose-dependent manner” and the “concentrations of IL-1β and TNFα” value ([2]; 5XFAD mice) is reported as “reduced the concentrations of inflammatory cytokines IL-1β and TNFα”. For the same molecule, the “activity of δ-secretase in mice brain” value ([2]; 5XFAD, oral once daily, 3 months) was “significantly inhibited”, the “concentrations of Aβ 1–40 and Aβ 1–42 in brain lysates” value ([2]; ELISA) was “significantly decreased” and the “cleavage of APP by δ-secretase at N373 and N585” value ([2]; Western blot) was “decreased the cleavage of APP”. For the same molecule, the “Morris water maze distance to platform” value ([2]; acquisition) was “decreased distance to platform”, the LTP deficits ([2]; mouse, in vivo) was “significantly reversed the LTP deficits” and the “density of spines (Golgi stain)” value ([2]; mouse, in vivo) was “increased the density of spines”. The “expression of C83” value ([2]; mouse, in vivo) was “not altered”, the “expression of C99” value ([2]; mouse, in vivo) was “decreased” and the “plaque deposition in hippocampus and frontal cortex (Thioflavin S)” value ([2]; mouse, in vivo) was “attenuated”. For the same molecule, the “probe test, time in target quadrant” value ([2]; mouse, in vivo) was “spent more time in the target quadrant”, the swim speed ([2]; mouse, in vivo) was “not affected” and the GAPDH inhibition ([3]; 2 μM) was “failed to inhibit GAPDH”. For the same molecule, the GAPDH inhibition ([3]; 50 μM) was “some inhibitory effect”, the “OGD-induced cell toxicity in neurons from 5XFAD or tau P301S mice” value ([4]; cultured neurons from 5XFAD mice or tau P301S mice) was “attenuated OGD-induced cell toxicity” and the “neuronal injury induced by OGD in δ-secretase knockout neurons” value ([4]; neurons from δ-secretase knockout mice) was “did not further protect”. The “neuronal injury (LDH in medium) induced by OGD” value ([4]; wild-type neurons) was “attenuated neuronal injury”.
